Data reported in patent publication US12377104B1, “Methods for treating a fatty liver disease” (Madrigal Pharmaceuticals, Inc., priority 2024, dated 2025).

What was measured:
[1] = Effect of food (high-fat meal) on pharmacokinetics; format: in vivo, human; conditions: high-fat meal vs fasted
[2] = MAESTRO-NASH: bone mineral density T score and fractures; set-up: species or system human; conditions: in vivo
clinical = conditions: human, in vivo
From the text: (§1) Following once daily doses, steady state was typically reached within 3 to 6 days of dosing.

[3] = system: adults with biopsy-confirmed NASH and fibrosis stage F1B, F2, or F3; assay: MAESTRO-NASH: sensitivity analyses of primary endpoints (consensus, multiple imputation, GEE, tipping point, paired biopsies); format: in vivo, human; conditions: for Fibrosis improvement at Week 52, % / Fibrosis improvement at Week 52, no. / NASH resolution at Week 52, % / NASH resolution at Week 52, no.: GEE analysis; for Difference in percentage of responders, CMH, resmetirom group - placebo, NASH resolution / Difference in percentage of responders, CMH, resmetirom group - placebo, fibrosis improvement / OR of resmetirom group to placebo, NASH resolution / OR of resmetirom group to placebo, fibrosis improvement: GEE model
Method: Consensus reads of digitized images of glass slides by the two central pathologists were conducted in cases where the two pathologists scores disagreed as to whether there was a response for either NASH resolution (ballooning 0,1; 2-point NAS reduction and no worsening of fibrosis) OR ≥1 stage fibrosis reduction with no worsening of NAS (primary endpoints) OR a 2-stage reduction in fibrosis with no worsening of NAS. The study pathologists remained blinded to all clinical data, patient ID, and slide/image identity or time of biopsy. Study personnel remain blinded to patient level data and detailed group analyses. In total 387 total assessments took place requiring four Zoom meetings between the pathologists.
Tipping Point Analyses: This analysis imputed missing placebo responses for NASH resolution (in increments from 0% to 100% placebo imputation) and fibrosis response (in increments from 0% up to 35% placebo imputation) at Week 52 as successful responses in order to determine how many missing responses (which were counted in the primary analysis labels as non-responders) could be imputed before losing statistical significance.
Multiple Imputation Analysis: Multiple imputation analyses were conducted where data for patients with missing response at Week 52 were imputed under the missing at random assumption. Data for patients with missing response data at Week 52 were imputed under the missing at random assumption by running a simulation (100 times) which produces a correlated pair of binary 0/1 data for each patient that represents the patient's response status for each pathologist. The statistics were then calculated for each imputation using the same approach as for the primary endpoint. The normalized results from each dataset were combined using Rubin's rule. (Table 17).
General Estimating Equation (GEE) Model Analysis: A generalized estimation equation (GEE) analysis was performed as a sensitivity analysis. This approach treated the biopsy scores from the two pathologists as repeated measures (i.e. correlated binary outcomes) within a patient. Baseline diabetes status, fibrosis stage and interaction term between pathologist and treatment were also included in the model.
Summary of Observed Cases Using In-window Week 52 Paired Liver Biopsies: Supportive analyses were performed on patients with in-window paired Week 52 biopsies. Missing Week 52 biopsies were not imputed.

[4] = human, in vivo
From the text: as §1

[5] = 80 mg (N = 258), in window including a baseline and Week 52 biopsy
[6] = 80 mg (n = 316), (1, 1) = responder per pathologist A and B
[7] = 80 mg (n = 316), Week 52, tipping point analysis, active patients with missing response = non-responders
[8] = 80 mg, (0, 0) = non-responder per both pathologists
[9] = 80 mg, (0, 1) = responder per pathologist B only
[10] = 80 mg, (1, 0) = responder per pathologist A only
[11] = 100 mg (N = 248), in window including a baseline and Week 52 biopsy
[12] = 100 mg (n = 321), (1, 1) = responder per pathologist A and B
[13] = 100 mg (n = 321), Week 52, tipping point analysis, active patients with missing response = non-responders
[14] = 100 mg, (0, 0) = non-responder per both pathologists
[15] = 100 mg, (0, 1) = responder per pathologist B only
[16] = 100 mg, (1, 0) = responder per pathologist A only
[17] = in window including a baseline and Week 52 biopsy
[18] = in-window including a baseline and Week 52 biopsy
[19] = tipping point, Placebo-0% imputed responders (Primary Analysis)
[20] = tipping point, Placebo-10% imputed responders
[21] = tipping point, Placebo-20% imputed responders
[22] = tipping point, Placebo-25% imputed responders
[23] = tipping point, Placebo-30% imputed responders
[24] = tipping point, Placebo-35% imputed responders
[25] = tipping point, Placebo-60% imputed responders
[26] = tipping point, Placebo-67% imputed responders
[27] = tipping point, Placebo-90% imputed responders
[28] = tipping point, Placebo-100% imputed responders

CC(C)c1cc(Oc2c(Cl)cc(-n3nc(C#N)c(=O)[nH]c3=O)cc2Cl)n[nH]c1=O [Resmetirom, 2-(3,5-dichloro-4-((5-isopropyl-6-oxo-1,6-dihydropyridazin-3-yl)oxy)phenyl)-3,5-dioxo-2,3,4,5-tetrahydro-1,2,4-triazine-6-carbonitrile]
decrease in AUC with food [1]: 11% | decrease in Cmax with food [1]: 33% | Tmax ([1]; human, plasma, oral, read-out: delay in median Tmax with food): ~2 h | fractures and bone mineral density T scores [2]: no increases in fractures or substantial changes in bone mineral density T scores | Tmax (clinical): ~4 h | half-life (clinical): 4.5 h | AUC (clinical; 80 mg): 5850 ng·h/mL | Cmax (clinical; 80 mg): 778 ng/mL | AUC (clinical; 100 mg): 7780 ng·h/mL | Cmax (clinical; 100 mg): 971 ng/mL | % Response, Fibrosis improvement [3, 5]: 29.7% | % Response, NASH resolution [3, 5]: 31.8% | % Response, NASH resolution OR fibrosis improvement ([3]; 80 mg (N = 258), in-window including a baseline and Week 52 biopsy): 42.2% | Fibrosis improvement at Week 52, % [3, 6]: (16.5) % | Fibrosis improvement at Week 52, no. [3, 6]: 52 | NASH resolution at Week 52, % [3, 6]: (19.6) % | NASH resolution at Week 52, no. [3, 6]: 62 | % Response, Fibrosis improvement [3, 7]: 24.2% | % Response, NASH resolution [3, 7]: 25.9% | Fibrosis improvement, Consensus (sensitivity), % Difference from PBO ([3]; 80 mg, Week 52): 12.2% | Fibrosis improvement, Consensus (sensitivity), % Response ([3]; 80 mg, Week 52): 24.4% | Fibrosis improvement, Multiple imputation (sensitivity), % Difference from PBO ([3]; 80 mg, Week 52): 11.4% | Fibrosis improvement, Multiple imputation (sensitivity), % Response ([3]; 80 mg, Week 52): 29.2% | NASH resolution, Consensus (sensitivity), % Difference from PBO ([3]; 80 mg, Week 52): 16.8% | NASH resolution, Consensus (sensitivity), % Response ([3]; 80 mg, Week 52): 24.4% | NASH resolution, Multiple imputation (sensitivity), % Difference from PBO ([3]; 80 mg, Week 52): 17.7% | NASH resolution, Multiple imputation (sensitivity), % Response ([3]; 80 mg, Week 52): 31.0% | Fibrosis improvement at Week 52, % [3, 8]: (68.0) % | Fibrosis improvement at Week 52, no. [3, 8]: 215 | NASH resolution at Week 52, % [3, 8]: (67.7) % | NASH resolution at Week 52, no. [3, 8]: 214 | Fibrosis improvement at Week 52, % [3, 9]: (8.9) % | Fibrosis improvement at Week 52, no. [3, 9]: 28 | NASH resolution at Week 52, % [3, 9]: (5.1) % | NASH resolution at Week 52, no. [3, 9]: 16 | Fibrosis improvement at Week 52, % [3, 10]: (6.6) % | Fibrosis improvement at Week 52, no. [3, 10]: 21 | NASH resolution at Week 52, % [3, 10]: (7.6) % | NASH resolution at Week 52, no. [3, 10]: 24 | Difference in percentage of responders, CMH, resmetirom group - placebo, NASH resolution ([3]; 80 mg, Week 52): 17.5 | Difference in percentage of responders, CMH, resmetirom group - placebo, fibrosis improvement ([3]; 80 mg, Week 52): 9.7 | OR of resmetirom group to placebo, NASH resolution ([3]; 80 mg, Week 52): 3.5 | OR of resmetirom group to placebo, fibrosis improvement ([3]; 80 mg, Week 52): 2.0 | % Response, Fibrosis improvement [3, 11]: 33.5% | % Response, NASH resolution [3, 11]: 38.7% | % Response, NASH resolution OR fibrosis improvement ([3]; 100 mg (N = 248), in-window including a baseline and Week 52 biopsy): 50.4% | Fibrosis improvement at Week 52, % [3, 12]: (15.9) % | Fibrosis improvement at Week 52, no. [3, 12]: 51 | NASH resolution at Week 52, % [3, 12]: (19.3) % | NASH resolution at Week 52, no. [3, 12]: 62 | % Response, Fibrosis improvement [3, 13]: 25.9% | % Response, NASH resolution [3, 13]: 29.9% | Fibrosis improvement, Consensus (sensitivity), % Difference from PBO ([3]; 100 mg, Week 52): 13.4% | Fibrosis improvement, Consensus (sensitivity), % Response ([3]; 100 mg, Week 52): 25.5% | Fibrosis improvement, Multiple imputation (sensitivity), % Difference from PBO ([3]; 100 mg, Week 52): 14.1% | Fibrosis improvement, Multiple imputation (sensitivity), % Response ([3]; 100 mg, Week 52): 31.9% | NASH resolution, Consensus (sensitivity), % Difference from PBO ([3]; 100 mg, Week 52): 20.7% | NASH resolution, Consensus (sensitivity), % Response ([3]; 100 mg, Week 52): 27.7% | NASH resolution, Multiple imputation (sensitivity), % Difference from PBO ([3]; 100 mg, Week 52): 23.2% | NASH resolution, Multiple imputation (sensitivity), % Response ([3]; 100 mg, Week 52): 36.0% | Fibrosis improvement at Week 52, % [3, 14]: (64.2) % | Fibrosis improvement at Week 52, no. [3, 14]: 206 | NASH resolution at Week 52, % [3, 14]: (59.5) % | NASH resolution at Week 52, no. [3, 14]: 191 | Fibrosis improvement at Week 52, % [3, 15]: (9.3) % | Fibrosis improvement at Week 52, no. [3, 15]: 30 | NASH resolution at Week 52, % [3, 15]: (4.0) % | NASH resolution at Week 52, no. [3, 15]: 13 | Fibrosis improvement at Week 52, % [3, 16]: (10.6) % | Fibrosis improvement at Week 52, no. [3, 16]: 34 | NASH resolution at Week 52, % [3, 16]: (17.1) % | NASH resolution at Week 52, no. [3, 16]: 55 | Difference in percentage of responders, CMH, resmetirom group - placebo, NASH resolution ([3]; 100 mg, Week 52): 21.3 | Difference in percentage of responders, CMH, resmetirom group - placebo, fibrosis improvement ([3]; 100 mg, Week 52): 11.0 | OR of resmetirom group to placebo, NASH resolution ([3]; 100 mg, Week 52): 4.2 | OR of resmetirom group to placebo, fibrosis improvement ([3]; 100 mg, Week 52): 2.1 | % Difference Resmetirom 80 mg from PBO, Fibrosis improvement [3, 17]: 13.6% | % Difference Resmetirom 80 mg from PBO, NASH resolution [3, 17]: 20.9% | % Difference Resmetirom 100 mg from PBO, Fibrosis improvement [3, 17]: 17.2% | % Difference Resmetirom 100 mg from PBO, NASH resolution [3, 17]: 28.6% | % Difference Resmetirom 80 mg from PBO, NASH resolution OR fibrosis improvement [3, 18]: 23.1% | % Difference Resmetirom 100 mg from PBO, NASH resolution OR fibrosis improvement [3, 18]: 31.2% | % Difference Resmetirom 80 mg from PBO, Fibrosis improvement [3, 19]: 10.2% | % Difference Resmetirom 80 mg from PBO, NASH resolution [3, 19]: 16.4% | % Difference Resmetirom 100 mg from PBO, Fibrosis improvement [3, 19]: 11.8% | % Difference Resmetirom 100 mg from PBO, NASH resolution [3, 19]: 20.7% | % Difference Resmetirom 80 mg from PBO, Fibrosis improvement [3, 20]: 8.8% | % Difference Resmetirom 100 mg from PBO, Fibrosis improvement [3, 20]: 10.4% | % Difference Resmetirom 80 mg from PBO, Fibrosis improvement [3, 21]: 7.5% | % Difference Resmetirom 100 mg from PBO, Fibrosis improvement [3, 21]: 9.1% | % Difference Resmetirom 80 mg from PBO, Fibrosis improvement [3, 22]: 6.9% | % Difference Resmetirom 100 mg from PBO, Fibrosis improvement [3, 22]: 8.5% | % Difference Resmetirom 80 mg from PBO, Fibrosis improvement [3, 23]: 6.2% | % Difference Resmetirom 80 mg from PBO, NASH resolution [3, 23]: 12.4% | % Difference Resmetirom 100 mg from PBO, Fibrosis improvement [3, 23]: 7.8% | % Difference Resmetirom 100 mg from PBO, NASH resolution [3, 23]: 16.7% | % Difference Resmetirom 80 mg from PBO, Fibrosis improvement [3, 24]: 5.5% | % Difference Resmetirom 100 mg from PBO, Fibrosis improvement [3, 24]: 7.1% | % Difference Resmetirom 80 mg from PBO, NASH resolution [3, 25]: 8.3% | % Difference Resmetirom 100 mg from PBO, NASH resolution [3, 25]: 12.7% | % Difference Resmetirom 80 mg from PBO, NASH resolution [3, 26]: 7.4% | % Difference Resmetirom 100 mg from PBO, NASH resolution [3, 26]: 11.7% | % Difference Resmetirom 80 mg from PBO, NASH resolution [3, 27]: 4.2% | % Difference Resmetirom 100 mg from PBO, NASH resolution [3, 27]: 18.6% | % Difference Resmetirom 80 mg from PBO, NASH resolution [3, 28]: 2.6% | % Difference Resmetirom 100 mg from PBO, NASH resolution [3, 28]: 7.0% | exposure increase following once daily dosing [4]: 1.5- to 3 fold | exposure vs dose [4]: greater than dose proportional | steady state exposure vs dose [4]: dose proportional | time to steady state [4]: 3 to 6 days
